The source of these data is ChEMBL document CHEMBL1132784, “Dibasic inhibitors of human mast cell tryptase. Part 2: structure-activity relationships and requirements for potent activity” (Bioorg Med Chem Lett, 2000).

For test [1], the target named is Plasminogen (Homo sapiens, UniProt P00747). Briefly: Compound was evaluated for its inhibitory potency against plasmin.
The target in test [2] is Serine protease 1 (Homo sapiens, UniProt P07477). Briefly: Compound was evaluated for its inhibitory potency against trypsin.
Sequence of Serine protease 1 (P07477 whole entry): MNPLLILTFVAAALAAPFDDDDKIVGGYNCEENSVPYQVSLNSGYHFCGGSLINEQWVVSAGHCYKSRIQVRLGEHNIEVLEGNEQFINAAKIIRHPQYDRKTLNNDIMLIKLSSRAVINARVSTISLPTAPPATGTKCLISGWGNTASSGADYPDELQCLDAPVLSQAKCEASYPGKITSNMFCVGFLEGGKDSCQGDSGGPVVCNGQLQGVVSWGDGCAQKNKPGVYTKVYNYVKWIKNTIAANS
Test [3] deals with Prothrombin (Homo sapiens, UniProt P00734). The experiment in a line: Compound was evaluated for its inhibitory potency against thrombin.
Test [4] deals with Tryptase (Homo sapiens, UniProt Q9BZJ3+Q15661+Q9NRR2). Briefly: Evaluated for its inhibitory potency against tryptase. In kind it is protein assay.

Each structure is given as a SMILES string. pKi: −log10 of the molar value. Bounds are passed on as bounds.

Sequence of Plasminogen (P00747 97-580 limits assumed): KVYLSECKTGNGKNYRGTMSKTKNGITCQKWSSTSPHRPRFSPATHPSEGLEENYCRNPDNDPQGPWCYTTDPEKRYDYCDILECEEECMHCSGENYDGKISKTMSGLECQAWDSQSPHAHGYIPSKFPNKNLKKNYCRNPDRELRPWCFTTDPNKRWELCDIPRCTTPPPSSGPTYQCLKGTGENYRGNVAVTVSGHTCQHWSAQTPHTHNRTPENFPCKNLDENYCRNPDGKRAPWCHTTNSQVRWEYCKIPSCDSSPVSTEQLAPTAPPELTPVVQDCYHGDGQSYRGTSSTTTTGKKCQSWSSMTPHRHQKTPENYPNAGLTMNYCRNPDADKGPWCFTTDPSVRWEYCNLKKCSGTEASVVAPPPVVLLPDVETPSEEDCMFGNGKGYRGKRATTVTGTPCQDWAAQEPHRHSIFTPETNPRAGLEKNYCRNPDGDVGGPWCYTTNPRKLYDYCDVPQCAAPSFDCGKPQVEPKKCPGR
Sequence of Plasminogen (P00747 581-810 limits assumed): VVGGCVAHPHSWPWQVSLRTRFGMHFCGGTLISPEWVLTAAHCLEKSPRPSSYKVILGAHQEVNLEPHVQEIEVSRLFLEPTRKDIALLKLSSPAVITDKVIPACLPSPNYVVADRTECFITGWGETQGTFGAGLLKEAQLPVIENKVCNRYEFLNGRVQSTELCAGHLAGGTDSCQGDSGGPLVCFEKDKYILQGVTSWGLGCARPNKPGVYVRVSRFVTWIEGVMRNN

With `N=C(N)Nc1ccc(CNC(=O)N2CCN(C(=O)O[C@H]3CCC[C@@H](OC(=O)N4CCN(C(=O)CCSc5ccncc5)CC4)CCC3)CC2)cc1`, the pKi – broadly, the negative decadic logarithm of the Ki, by convention in mol/L – was under 3.00 in test [1], 3.81 in test [2] and 3.13 in test [3]. The inhibitory constant (Ki) (usually the equilibrium dissociation constant of an inhibitor or competing ligand from its target) in test [4] worked out at 0.08 µM.
On the same counts, the results for `N=C(N)Nc1ccc(CNC(=O)N2CCN(C(=O)CCCCC(=O)N3CCN(C(=O)NCc4ccc(NC(=N)N)cc4)CC3)CC2)cc1` are 3.50, 4.27, under 3.00 and 0.044 µM.
On the same counts, the results for `CNCc1ccc(CNC(=O)N2CCN(C(=O)O[C@H]3CCC[C@@H](OC(=O)N4CCN(C(=O)NCc5ccc(CNC)cc5)CC4)CCC3)CC2)cc1` are under 3.00, under 3.00, under 3.00 and 6 µM.
On the same counts, the results for `NCCCCCNC(=O)N1CCN(C(=O)O[C@H]2CCC[C@@H](OC(=O)N3CCN(C(=O)NCCCCCN)CC3)CCC2)CC1` are under 3.00, 3.12, under 3.00 and 0.011 µM.
For the compound `N=C(N)c1ccc(CCNC(=O)N2CCN(C(=O)O[C@H]3CCC[C@@H](OC(=O)N4CCN(C(=O)NCCc5ccc(C(=N)N)cc5)CC4)CCC3)CC2)cc1`, the pKi in test [1] was 4.22; in test [2] it was 4.18; in test [3], 4.44. The compound further gave a Ki in test [4] of 0.44 µM.
Taken in the same sequence, the figures for `N=C(N)Nc1ccc(CNC(=O)N2CCN(C(=O)O[C@H]3CCC[C@@H](OC(=O)N4CCN(C(=O)CCNc5ccncc5)CC4)CCC3)CC2)cc1` were under 3.00, 3.95, under 3.00 and 0.097 µM.
On the same counts, the results for `N=C(N)Nc1ccc(CNC(=O)N2CCN(C(=O)O[C@H]3CCC[C@@H](OC(=O)N4CCN(C(=O)NCCCCCN)CC4)CCC3)CC2)cc1` are under 3.00, 3.89, under 3.00 and 0.0005 µM.
On the same counts, the results for `N=C(N)Nc1ccc(CNC(=O)N2CCN(C(=O)OCC34CCC(COC(=O)N5CCN(C(=O)NCc6ccc(NC(=N)N)cc6)CC5)(CC3)CC4)CC2)cc1` are 5.52, 4.70, 3.91 and 0.0004 µM.
Take `O=C(CCCCCn1ccnc1)N1CCN(C(=O)O[C@H]2CCC[C@@H](OC(=O)N3CCN(C(=O)CCCCCn4ccnc4)CC3)CCC2)CC1`: the pKi in test [1], in test [2] and in test [3] was under 3.00 each time. Besides, in test [4], the Ki was 46 µM.
As for `N=C(N)Nc1ccc(CNC(=O)N2CCN(C(=O)OC[C@H]3C4C=CC(CC4)[C@@H]3COC(=O)N3CCN(C(=O)NCc4ccc(NC(=N)N)cc4)CC3)CC2)cc1`, the pKi in test [1] was 3.15; in test [2], 4.82; in test [3], 3.86. Besides, in test [4], the Ki worked out at 0.008 µM.
On the same counts, the results for `N=C(N)Nc1ccc(CNC(=O)N2CCN(C(=O)O[C@H]3CCC[C@@H](OC(=O)N4CCN(C(=O)CCc5cnc(N)nc5)CC4)CCC3)CC2)cc1` are under 3.00, 3.78, under 3.00 and 41 µM.
On the same counts, the results for `CC(=N)N1CCC(CCNC(=O)N2CCN(C(=O)O[C@H]3CCC[C@@H](OC(=O)N4CCN(C(=O)NCCC5CCN(C(C)=N)CC5)CC4)CCC3)CC2)CC1` are under 3.00, under 3.00, under 3.00 and 255 µM.
Turning to `N=C(N)Nc1ccc(CNC(=O)N2CCN(C(=O)OCC34CC5CC(C3)CC(COC(=O)N3CCN(C(=O)NCc6ccc(NC(=N)N)cc6)CC3)(C5)C4)CC2)cc1`, the results for the pKi in test [1], in test [2] and in test [3] were 3.24, 4.77 and 3.44, respectively. For the same compound, in test [4], the Ki was determined as 0.01 µM.
